# System: mTORC1
# Test: Cell-based mTORC1 activation (Method 2), western blot of phosphorylated S6 Kinase and 4EBP1 in HEK293T cells
# Details: 100 μM; shift relative to DMSO control; HEK293T cells after leucine starvation
# Experimental: Briefly, 800,000 HEK293T cells were plated in each well of a 6-well plate in DMEM supplemented with 10% fetal bovine serum and antibiotics. […] Cells were then lysed, processed for SDS-PAGE and western blotting was performed with antibodies directed against the mTORC1 substrates phosphorylated S6 Kinase (Thr389) and phosphorylated 4EBP1 (Thr37/46) (Cell Signaling Technology) and loading controls (beta-actin, Santa Cruz Biotechnology) as described in Kang, S. A., et al. Science 341(6144): 364-374 (2013). The intensity of the bands corresponding to the phosphorylated substrates were then normalized to the actin band using the LI-COR® imaging platform.
row,SMILES,Cell-Based mTORC1 Activation
1,N[C@@H](CC1CCC1)C(=O)O [Example I-37],E to F
2,CC(C)C[C@H](N)C(N)=O.Cl [Example I-23],D to F
3,"CC(C)C(F)(F)[C@@H](N)C(=O)O [Example I-47, (S)-2-amino-3,3-difluoro-4-methylpentanoic acid]",D (a shift relative to DMSO control of 0.5 to 2 fold)
4,"N[C@H](CCCC(F)(F)F)C(=O)O [Example I-9, (R)-2-amino-6,6,6-trifluorohexanoic acid]",E (a shift relative to DMSO of 2.1-5 fold)
5,NC(CCCC(F)(F)F)C(=O)O (stereo not drawn) [Example I-42],D to F
6,"CC(C)C(F)(F)[C@H](N)C(=O)O [Example I-46, (R)-2-amino-3,3-difluoro-4-methylpentanoic acid]",D (a shift relative to DMSO control of 0.5 to 2 fold)
7,"C[C@H](CC(N)C(=O)O)C(F)(F)F (stereo in doubt) [Example I-167, (2R,4R)-2-amino-5,5,5-trifluoro-4-methylpentanoic acid]",D to F
8,CC(C)C[C@H](N)C(=O)O [Example I-44],D (a shift relative to DMSO control of 0.5 to 2 fold)
9,CC(C)(C)C[C@H](N)C(=O)O [Example I-43],D to E
10,COC(=O)[C@@H](N)CC(C)C [Example I-168],D to E

# Same assay, conditions: 30 and 100 μM; shift relative to DMSO control; HEK293T cells after leucine starvation
row,SMILES,Cell-Based mTORC1 Activation
1,CC(C)C[C@@H](N)B1OC(C)(C)C(C)(C)O1 [Example I-10],D (a shift relative to DMSO control of 0.5 to 2 fold)

# Biological target: T1, Sestrin2 (Homo sapiens, UniProt P58004)
# T1 construct: crude lysate generated from a human cell line; endogenous in cells; host or cells: Unnamed human cell line (crude lysate)
# T1 sequence (P58004 1-480): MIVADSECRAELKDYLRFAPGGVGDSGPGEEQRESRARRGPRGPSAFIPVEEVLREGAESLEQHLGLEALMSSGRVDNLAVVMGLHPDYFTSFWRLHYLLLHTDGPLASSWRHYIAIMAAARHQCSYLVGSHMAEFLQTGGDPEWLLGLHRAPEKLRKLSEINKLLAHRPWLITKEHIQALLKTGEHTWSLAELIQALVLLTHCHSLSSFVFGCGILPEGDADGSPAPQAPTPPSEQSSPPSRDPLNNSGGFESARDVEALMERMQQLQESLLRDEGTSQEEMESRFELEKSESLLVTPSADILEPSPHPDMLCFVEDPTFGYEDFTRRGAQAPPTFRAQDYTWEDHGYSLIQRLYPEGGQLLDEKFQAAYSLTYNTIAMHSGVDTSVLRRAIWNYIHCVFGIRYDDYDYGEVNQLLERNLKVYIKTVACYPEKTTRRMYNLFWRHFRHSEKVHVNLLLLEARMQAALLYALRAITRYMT
# Test: Indirect ligand binding assay (ILBA, Method 7), immunoprecipitation with CST anti-Sestrin2 antibody
# Details: crude lysate of amino acid starved human cell line, 1 hour incubation
# Experimental: Conversely, compounds that destabilized Sestrin2 as measured by thermal shift assay increased the affinity of the CST antibody for non-denatured Sestrin2. […] In one version, the assay was performed with crude lysate generated from a human cell line after a 1-hour period of amino acid starvation (cells are lysed in 1% Triton, 10 mM beta-glycerol phosphate, 10 mM sodium pyrophosphate, 40 mM HEPES [pH 7.4], 150 mM NaCl and 2.5 mM MgCl2). […] After compound incubation, samples were subjected to immunoprecipitation with the CST anti-Sestrin2 antibody for 1.5 hours followed by a 30-minute incubation with protein-A sepharose as described in L. Chantranupong, et al., Cell Reports 9:1-8 (2014). The sepharose conjugated antibody-protein complex was precipitated via centrifugation and the flow-through was subjected to a second round of immunoprecipitation with a rabbit polyclonal anti-Sestrin2 antibody (Protein Tech, #10795-1-AP) to determine that total Sestrin2 protein levels between samples were equal. SDS-PAGE was performed with the immunoprecipitation samples followed by western-blot with the mouse monoclonal anti-Sestrin2 antibody from SIGMA (cat #WH0083667M3). […] This version of the assay also measured increased instability of Sestrin2 induced by incubation with compounds.
row,decrease in the intensity of the band corresponding to Sestrin2 (CST antibody immunoprecipitation),SMILES
1,≥ 50%,CC(C)C[C@H](N)C(=O)O [leucine]

# Biological target: T2, GATOR2/Sestrin2 complexes (Homo sapiens, UniProt P58004)
# T2 construct: The Flag-WDR24/endogenous-Sestrin2 complex was isolated as follows; expressed in transfected cells; host or cells: HEK293T cells stably expressing FLAG-WDR24 (lentiviral vector pLJM60); Sestrin2 and the remaining GATOR2 subunits are endogenous
# T2 sequence (P58004 1-480): T1 sequence (P58004 1-480)
# Test: In vitro PPI assay (Method 1): Sestrin2 bound to GATOR2, western blot, % activity relative to leucine
# Format: binding
# Details: compound at 25 μM; leucine 25 μM = 100% activity; duplicate
# Source text: This screening assay measured test compound activity in vitro on GATOR2/Sestrin2 complexes purified via immunoprecipitation of stably expressed FLAG-WDR24 from HEK293T cells. HEK293T cells (293 Ts) were engineered to stably express N-terminally tagged FLAG-WDR24 via transduction by lentivirus. Lentiviruses were produced by co-transfection of the lentiviral transfer vector pLJM60 with the […] into HEK-293T cells using the XTremeGene 9 transfection reagent (Roche Diagnostics). The media was changed 24 hours post-transfection to Dulbecco's Modified Eagle's media (DMEM) supplemented with 30% Inactivated Fetal Serum. The virus-containing supernatants were collected 48 and 72 hours after transfection and passed through a 0.45 μm filter to eliminate cells. Target cells in 6-well tissue culture plates were infected in media containing 8 μg/mL polybrene and spin infections were performed by centrifugation at 2,200 rpm for 1 hour. Twenty-four hours after infection, the virus was removed and the cells selected with the appropriate antibiotic. Cells were then grown in DMEM supplemented with 10% fetal bovine serum and antibiotics.
# Seventy-two hours later, cells were placed in standard RPMI media formulated with no amino acids and supplemented with 5 mM Glucose (−AA RPMI, US Biological Life Sciences) for 1 hour then subsequently lysed in lysis buffer (40 mM HEPES, 1% Triton, 10 mM sodium β-glycerophosphate, 10 mM sodium pyrophosphate, 2.5 mM MgCl2 and protease inhibitors). […]
# The resulting western blots were scanned and band intensities corresponding to Sestrin2 and FLAG-WDR24 were quantified using the LI-COR® imaging platform. […]
# This screening assay measured compound activity in vitro on GATOR2/Sestrin2 complexes purified via immunoprecipitation of stably expressed Flag-WDR24 from HEK293T cells. […]
row,Activity of Leucine: % Activity,SMILES
1,A to C,CC(C)C[C@H](N)C(=O)NC(C)(C)C [Example I-165]
2,B to C,CC(C)C[C@H](N)S(=O)(=O)O [Example I-157]

row,SMILES,Activity of Leucine: % Activity
1,CC(C)CCC(N)C(=O)O (stereo not drawn) [Example I-41],A (% activity relative to leucine of ≥40%)

# From patent US12378263B2, “Modulators of sestrin-GATOR2 interaction and uses thereof” (Navitor Pharmaceuticals, Inc., priority 2015, dated 2025)
